Measured values: US20250057823A1, “COMPOSITION FOR IMPROVING CARDIAC FUNCTION” (Kyoto University, priority 2021, published 2025)
Where a name gives a salt, the structure may show the parent alone.

Assays:
[1] = test system: beagle dog models of heart failure; assay: Beagle dog models of rapid ventricular pacing-induced heart failure; format: in vivo
Description: After induction of general anesthesia with thiopental sodium (20 mg/kg, i.v.: 0.5 g of Labonal injection, Nipro ES Pharma Corporation) in 10- to 12-month-old male beagle dogs (9.80-11.50 kg), a tracheal cannula was inserted into the airway, and artificial respiration was performed with an Acoma veterinary ventilator (PRO-45Va, Acoma Medical Corporation). Anesthesia was maintained by inhalation of a gas mixture (Air:O2=3:0.2) and 1.0 to 2.5% isoflurane (isoflurane inhalation solution “Pfizer”, Mylan Seiyaku Co., Ltd.) using an Acoma animal anesthesia machine (NS-5000A, Acoma Medical Industry Co., Ltd.) to maintain a constant depth of anesthesia. An incision was made in the right side of the neck of the animal, an animal internal cardiac pacemaker (SIP-501, Star Medical Corporation) was implanted subcutaneously, a retractable screw-in reed (Tendril STS J, St. Jude Medical, Inc.) was inserted through the right jugular vein under X-ray fluoroscopy (BV Pulsera, Koninklijke Philips N.V.), and the tip was implanted in the right ventricular wall. Pacing was started at 244-251 beats/min on postoperative day 1. Dogs with ejection fraction (EF) decreasing to 30-50% at 4 weeks after pacemaker activation were considered to have heart failure and subjected to analysis.
Echocardiography was performed using a general-purpose ultrasound imaging system (Vivid S6, GE Medical Systems). The left ventricular end-diastolic diameter (LVIDd), left ventricular end-systolic diameter (LVIDs), ejection fraction (EF), and left ventricular internal diameter shortening (% FS) were measured in M-mode by placing a sector probe (10 MHz) on the chest.
Dogs were anesthetized intravenously with 14.5 to 22.3 mg/kg of secobarbital sodium (Injectable Ionar sodium (0.2), Nichi-Iko Co., Ltd.), followed by subcutaneous administration of 0.2 mg/kg of meloxicam (Metacam 0.5% injection, Boehringer Ingelheim Animal Health Japan Co.). A tracheal tube was inserted into the airway and connected to an Acoma animal ventilator (PRO-45Va, Acoma Medical Industry Co., Ltd.). The ventilator was set at a respiratory rate of 14-18 strokes/min and a tidal volume of 10-20 mL/kg/stroke, and respiration was controlled by an Acoma animal anesthesia machine (NS-5000A, Acoma Medical Industry Co., Ltd.) using a gas mixture (FiO2=0.3-1.0). The exhaled CO2 partial pressure was monitored using an exhaled carbon dioxide monitor (OLG-2800, Nihon Kohden Corporation). The animals were fixed in the dorsal position and the thighs and neck were shom. Anesthesia was maintained by continuous intravenous infusion of sodium secobarbital (5 mg/kg/hr) through the radial cutaneous vein using a Telfusion syringe pump (STC-523, Terumo Corporation). A Swan-Ganz catheter was inserted through the left femoral vein. A catheter for coronary angiography was inserted through the left femoral artery. A 5F sheath for arterial blood sampling was placed in the right femoral artery. A catheter for PV-loop analysis was inserted from the left internal carotid artery. An 8F occlusion balloon was placed from the right femoral vein for occlusion testing. In addition, KUS121 was administered from the left common jugular vein.
Beagle dog models of heart failure were prepared by rapid ventricular pacing. Cardiac function was assessed by echocardiography before KUS121 administration and after continuous infusion at 40 mg/h. KUS121 increased LVEF, even if it was based on either of the Teichholz method and the modified-Simpson's method, and increased % FS (FIG. 18). Changes in heart rate, systolic blood pressure, diastolic blood pressure, left ventricular ejection fraction, mean pulmonary artery pressure, pulmonary capillary wedge pressure, left ventricular end-diastolic pressure, and adjusted dp/dt are shown in FIGS. 19 to 21. […]

mouse models of HFpEF = assay: Mouse models of HFpEF (high-fat diet + L-NAME), acute effect; format: in vivo; conditions: high-fat diet+L-NAME group
Description: Mouse models of HFpEF were prepared by high-fat diet and administration of L-NG-nitroarginine methyl ester (L-NAME) to test the effect of KUS121 on HFpEF. ICR mice were fed with normal diet and ultrapure water or high-fat diet and 0.5 g/L of L-NAME for 5 weeks.
Then, acute effect of KUS121 on HFpEF was tested. ICR mice fed with normal diet or high-fat diet+0.5 g/L of L-NAME were injected intraperitonially with 50 mg/kg of KUS121 and cardiac function was assessed by echocardiography before and 10 minutes after the injection. No difference in echocardiography was observed between the normal diet group and the high-fat diet+L-NAME group before injection of 5% glucose or KUS121 (FIG. 26). EF was not changed after […] in the control group and the high-fat diet+L-NAME group (FIG. 26, left and middle), but was increased after KUS121 injection in the high-fat diet+L-NAME group (FIG. 26, right).
Diastolic function was also tested. Global longitudinal strain (GLS), E/A, and E/E′ were assessed for evaluating cardiac diastolic function. Mice from the high-fat diet+L-NAME group had diastolic dysfunction as indicated by high levels of GLS, E/A, and E/E′ before KUS121 administration, the degree of which varied among the individual animals (FIG. 27).
To assess exercise tolerance, treadmill test (TMT) was performed.

[2] = echocardiography, before vs after continuous infusion at 40 mg/h
[3] = infusion per FIG. 17 protocol, cardiac catheterization
[4] = 50 mg/kg i.p., before and after administration

Compound: Cc1cc(F)ccc1-c1ccc(/N=N/c2cc(S(=O)(=O)O)c3ccccc3c2N)cn1 [KUS121, 4-amino-3-[6-(4-fluoro-2-methylphenyl)pyridine-3-ylazo]naphthalene-1-sulfonic acid sodium salt]
- liver and kidney functions ([1]; blood samples collected during acute phase): remained normal
- % FS (fractional shortening in left ventricle) [1, 2]: increased
- LVEF based on the Teichholz method [1, 2]: increased
- LVEF based on the modified-Simpson's method [1, 2]: increased
- heart rate ([1]; infusion per FIG. 17 protocol): without affecting
- left ventricular diastolic function ([1]; infusion per FIG. 17 protocol): improved
- left ventricular systolic function ([1]; infusion per FIG. 17 protocol): improved
- systolic blood pressure ([1]; infusion per FIG. 17 protocol): without affecting
- pulmonary artery pressure [1, 3]: lowered
- pulmonary capillary wedge pressure [1, 3]: lowered
- E/A (mouse models of HFpEF; [4]): improved
- E/E′ (mouse models of HFpEF; [4]): improved
- Global longitudinal strain (GLS) (mouse models of HFpEF; [4]): improved
- EF (left ventricular ejection fraction) (mouse models of HFpEF; 50 mg/kg i.p., echocardiography before and 10 minutes after injection): increased
- blood pressure (mouse models of HFpEF; before and after 50 mg/kg): lowered the blood pressure
- exercise tolerance (distance traveled in treadmill test) (mouse models of HFpEF; before and after 50 mg/kg): improved the exercise tolerance
- heart rate (mouse models of HFpEF; before and after 50 mg/kg): slightly lowered the heart rate
